Results published in ChEMBL document CHEMBL1201862, “PubChem BioAssay data set” (2004).
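Grown in 96-well plates, cells were treated for 48 hours with each compound at five concentrations. Insufficient inhibition: endpoint recorded as highest concentration tested. At the GI50, growth is halved.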 Activity calls are given as the source filed them. No stated cut-off is given here; in the data, active = GI50 up to about 1.1 µM and inactive = higher.

What was measured:
Assay in all cases: DTP human tumour cell line panel, 48 h
SK-MEL-28 = system: SK-MEL-28
Malme-3M = system: Malme-3M
NCI-H226 = system: NCI-H226
PC-3 = system: PC-3
EKVX = system: EKVX
HOP-62 = system: HOP-62
UO-31 = system: UO-31
OVCAR-3 = system: OVCAR-3
HCT-15 = system: HCT-15
OVCAR-4 = system: OVCAR-4
MDA-MB-435 = system: MDA-MB-435
U-251 = system: U-251
A549 = system: A549
MCF7 = system: MCF7
HCT-116 = system: HCT-116
KM12 = system: KM12
NCI-H522 = system: NCI-H522
OVCAR-5 = system: OVCAR-5
SF-268 = system: SF-268
HCC 2998 = system: HCC 2998

| SMILES | GI50 (SK-MEL-28) | GI50 (Malme-3M) | GI50 (NCI-H226) | GI50 (PC-3) | GI50 (EKVX) | GI50 (HOP-62) | GI50 (UO-31) | GI50 (OVCAR-3) | GI50 (HCT-15) | GI50 (OVCAR-4) | GI50 (MDA-MB-435) | GI50 (U-251) | GI50 (A549) | GI50 (MCF7) | GI50 (HCT-116) | GI50 (KM12) | GI50 (NCI-H522) | GI50 (OVCAR-5) | GI50 (SF-268) | GI50 (HCC 2998) |
| --- | --- | --- | --- | --- | --- | --- | --- | --- | --- | --- | --- | --- | --- | --- | --- | --- | --- | --- | --- | --- |
| CNC(=O)N(CCC#N)CCN(C(=O)NC)c1ccccc1 | > 100 µM (inactive) | > 73.8 µM (inactive) | > 100 µM (inactive) | > 100 µM (inactive) | > 100 µM (inactive) | > 100 µM (inactive) | > 100 µM (inactive) | > 100 µM (inactive) | > 100 µM | > 100 µM (inactive) | > 100 µM (inactive) | > 100 µM (inactive) | > 100 µM (inactive) | > 100 µM (inactive) | > 100 µM (inactive) | > 100 µM (inactive) | > 100 µM (inactive) | > 100 µM (inactive) | > 100 µM (inactive) | > 100 µM (inactive) |
| Nc1ccc(-c2nc3ccccc3s2)cc1 | 17.1 µM (inactive) | 17.6 µM (inactive) | 25.3 µM (inactive) | 14.9 µM (inactive) | 33.2 µM (inactive) | 36.9 µM (inactive) | 12.6 µM (inactive) | 13.3 µM (inactive) | 19.5 µM | 14.8 µM (inactive) | 17.9 µM (inactive) | 17.4 µM (inactive) | 23 µM (inactive) | 19.1 µM (inactive) | 18 µM (inactive) | 21.4 µM (inactive) | 20.6 µM (inactive) | 18.7 µM (inactive) | 10.3 µM (inactive) | 59.7 µM (inactive) |
| CCOC(=O)C(Cl)(NC(=O)OCc1ccccc1)C(F)(F)F (stereo not given) | > 100 µM (inactive) | > 100 µM (inactive) | > 100 µM (inactive) | > 100 µM (inactive) | > 100 µM (inactive) | > 100 µM (inactive) | > 100 µM (inactive) | > 100 µM (inactive) | > 100 µM | > 100 µM (inactive) | > 100 µM (inactive) | > 100 µM (inactive) | > 100 µM (inactive) | > 100 µM (inactive) | > 100 µM (inactive) | > 100 µM (inactive) | > 100 µM (inactive) | > 100 µM (inactive) | > 100 µM (inactive) | > 100 µM (inactive) |
| [O-]/[N+](=N/c1ncc(-c2ccccc2)cn1)c1ncc(-c2ccccc2)cn1 | > 61.9 µM (inactive) | 32.2 µM (inactive) | > 94.8 µM (inactive) | 92.7 µM (inactive) | 63.5 µM (inactive) | > 100 µM (inactive) | > 66.1 µM (inactive) | > 83.8 µM (inactive) | 36.4 µM | 54.6 µM (inactive) | 40.5 µM (inactive) | 44.1 µM (inactive) | > 100 µM (inactive) | 36 µM (inactive) | 31.6 µM (inactive) | 67.6 µM (inactive) | 14.8 µM (inactive) | > 100 µM (inactive) | > 84.7 µM (inactive) | > 100 µM (inactive) |
| Cc1nc2cc(/N=N/c3c(C)noc3C)ccc2[nH]1 | 17.6 µM (inactive) | 25.9 µM (inactive) | > 100 µM (inactive) | 27.6 µM (inactive) | 18.2 µM (inactive) | 27.1 µM (inactive) | 13.9 µM (inactive) | 18.1 µM (inactive) | 27.2 µM | 64.7 µM (inactive) | 21.3 µM (inactive) | 28.4 µM (inactive) | 19.1 µM (inactive) | 18.2 µM (inactive) | 18.3 µM (inactive) | 49.8 µM (inactive) | 23.3 µM (inactive) | 28 µM (inactive) | 26.6 µM (inactive) | 54.3 µM (inactive) |
| CC(C)(C)c1nc2c(o1)/C(=N\c1ccc(F)cc1)c1ccccc1C2=O | 10.9 µM (inactive) | 1.97 µM (inactive) | 16.9 µM (inactive) | 5.41 µM (inactive) | 23.7 µM (inactive) | 15.9 µM (inactive) | 4.59 µM (inactive) | 1.06 µM (active) | 5.19 µM | 28.8 µM (inactive) | 2.05 µM (inactive) | 3.48 µM (inactive) | 6.49 µM (inactive) | 4.13 µM (inactive) | 5.12 µM (inactive) | 7.78 µM (inactive) | 5.36 µM (inactive) | 14.6 µM (inactive) | 10.6 µM (inactive) | 9.12 µM (inactive) |
| CC[C@@H]1CC[C@@H]2[C@H](CC[C@]3(C)[C@@H](OC(C)=O)CC[C@@H]23)[C@H]1COC(C)=O | 30.8 µM (inactive) | 18.4 µM (inactive) | 23.1 µM (inactive) | 30.1 µM (inactive) | 31.6 µM (inactive) | 30.4 µM (inactive) | > 100 µM (inactive) | 17.4 µM (inactive) | 23.9 µM | 22.5 µM (inactive) | 22.5 µM (inactive) | 19.5 µM (inactive) | 22.1 µM (inactive) | 31.6 µM (inactive) | 16.5 µM (inactive) | 24.3 µM (inactive) | 23.1 µM (inactive) | 20.1 µM (inactive) | 21.6 µM (inactive) | 13.4 µM (inactive) |
| CN1CCCOC(c2ccc([N+](=O)[O-])cc2)O1 (stereo not given) | > 100 µM (inactive) | > 100 µM (inactive) | > 100 µM (inactive) | > 100 µM (inactive) | > 100 µM (inactive) | > 100 µM (inactive) | > 100 µM (inactive) | > 100 µM (inactive) | > 100 µM | > 100 µM (inactive) | > 100 µM (inactive) | > 100 µM (inactive) | > 100 µM (inactive) | > 100 µM (inactive) | > 100 µM (inactive) | > 100 µM (inactive) | > 100 µM (inactive) | > 100 µM (inactive) | > 100 µM (inactive) | > 100 µM (inactive) |
